Laboratory results published in patent publication US20100069393A1, “METHOD OF TREATMENT AND AGENTS USEFUL FOR SAME” (PRANA BIOTECHNOLOGY LIMITED, priority 2006, published 2010).

Columns and labels:
[1] = Mice plasma concentration; format: in vivo; settings: for Mice plasma concentration: presence in plasma at one or two time points (between 30 min and 4 h); for Mice plasma concentration (single dose) / Mice plasma concentration at 10 mg/kg: one or two time points (between 30 min and 4 h)
[2] = In vivo toxicity, visual observations; settings: number of days
[3] = Cytotoxicity: viability of M17 cells; settings: human, M17 neuroblastoma cells, Cytotoxicity (% viable at 1 and 10 uM); for viability at 1 uM: test compound 1 uM; for viability at 10 uM: test compound 10 uM
[4] = Neurotoxicity assay: MTS viability of primary cortical neuronal cultures; format: cell-based, mouse; settings: BL6Jx129sv, mouse, primary cortical neuronal cultures, Neuronal cells, read-out: Cytotoxicity (% viable at 1 and 10 uM); for viability at 4 days, 1 uM: test compound 1 uM; for viability at 4 days, 10 uM: test compound 10 uM
Description: Media was then replaced with Neurobasal media (Invitrogen Life Technologies) and B27 supplements (Invitrogen Life Technologies). Cultures were maintained at 37° C. in 5% CO2. Prior to experimentation, the culture medium was replaced with Neurobasal media and B27 minus antioxidants (Invitrogen Life Technologies).
Cell viability is determined using the MTS assay. Culture medium is replaced with fresh neurobasal medium plus B27 supplements minus antioxidants. 1/10th volume MTS solution (Cell Titre 96 Aqueous One, Promega Corporation) and incubated at 37° C., 2 hrs. 200 microlitre aliquots are measured with a spectrophotometer at 560 nm.
Neuronal cortical cells were cultured for five days as per Assay 2 in NB media and B27 supplement.
On day six the test compounds were added to the neuronal cell cultures in NB media and B27 supplement minus antioxidants.
Test compounds were dissolved in 100% DMSO to a concentration of 2.5 mM (10 mM if excess compound was weighed out per vial—then diluted to 2.5 mM). […] Test compounds were not added directly to cells, instead they were added to a 48 well ‘Drug Plate’ as comprised below:
The Drug Plate was incubated at 37° C. for 15 mins. 200 μl of each well was added in triplicate to the corresponding cell plate. The cell plate was incubated at 37 C, for 4 days.
On completion of the assay, 1/10 volume MTS was added per well of plate (i.e. 25 μl/250 μl). The plates were incubated at 37 C for 2 hrs, and then absorbance was read at 560 nm.

Row | SMILES | Mice plasma concentration [1] | Toxicity at 30 mg/kg [2] | viability at 1 uM [3] [%] | viability at 10 uM [3] [%] | viability at 4 days, 1 uM [4] [%] | viability at 4 days, 10 uM [4] [%] | Mice plasma concentration (single dose) [1] | Mice plasma concentration at 10 mg/kg [1] | Toxicity at 10 mg/kg [2]
1 | O=c1c2c(Cl)cc(Cl)c(O)c2ncn1CCNCc1ccncc1 | Up to 1639.8 ng/mL | 10 days, none | 103 | 105 |  |  |  |  | 
2 | CCCc1cnc2c(O)cccn2c1=O | Up to 690 ng/ml ng/mL | 10 days, none | 79.1 | 45.2 |  |  |  |  | 
3 | CCCCc1cnc2c(O)cccn2c1=S | Up to 57 ng/ml ng/mL | 7 days, 2/4 deaths |  |  |  |  |  |  | 
4 | O=C(O)Cn1cnc2c(O)c(Cl)cc(Cl)c2c1=O |  | 10 days, none | 105 | 101 |  |  |  |  | 
5 | O=c1c2c(Cl)cc(Cl)c(O)c2ncn1-c1ccc(Cl)cn1 |  | 10 days, none | 86.9 | 70.5 | 94 | 58 |  |  | 
6 | Oc1c(C2CC2)ncc2cccnc12 |  | 6 days, none |  |  | 100 | 98 | Up to 350 ng/mL (single dose) |  | 
7 | CCCCNC(=O)C1=CN=C2C(O)=C(I)C=CN2C1 | Up to 27,598 ng/ml ng/mL | 10 days, none | 85.3 | 63.4 |  |  |  |  | 
8 | O=C(NCc1ccccc1)c1cnc2c(O)cccn2c1=O | Up to 22.2 ng/mL | 10 days, none | 92.7 | 97.3 |  |  |  |  | 
9 | O=c1c2c(Cl)cc(Cl)c(O)c2ncn1Cc1ccn2ccnc2c1 | Up to 1465.4 ng/mL | 10 days, none | 105 | 105 |  |  |  |  | 
10 | O=C(NCCc1c[nH]cn1)c1ccc2c(Cl)cc(Cl)c(O)c2n1 | Up to 2694 ng/mL |  |  |  | 91 | 84 |  |  | 
11 | Br.Cc1cccnc1Cn1cnc2c(O)c(Cl)cc(Cl)c2c1=O | Up to 439 ng/mL | 10 days, 3/4 mild signs |  |  | 99 | 88 |  |  | 
12 | O=c1[nH]cnc2c(O)c(Cl)cc(Cl)c12 |  | 3 days, none |  |  | 100 | 93 | Below 100 ng/mL (single dose) |  | 
13 | CCCn1cnc2c(O)c(I)ccc2c1=O |  | 10 days, none |  |  |  |  | Up to 1096 ng/mL (single dose) |  | 
14 | CC(C)Cn1cnc2c(O)c(I)ccc2c1=O |  |  | 111 | 68.2 |  |  |  | At 10 mg/kg: Up to 309 ng/ml ng/mL | At 10 mg/kg: 10 days, none
15 | CCc1cnc2c(O)c(I)ccn2c1=O |  |  | 82.5 | 23.3 |  |  |  | At 10 mg/kg: Up to 7082 ng/mL | At 10 mg/kg 10 days, none
16 | O=c1c(-c2ccc(Cl)cc2)cnc2c(O)c(I)ccn12 | Up to 450 ng/mL | 10 days, mild toxic signs |  |  | 41 | 33 |  |  | 
17 | CC(C)c1cnc2c(O)c(I)ccn2c1=O |  | 10 days, 1/4 death, remaining 1/3 mild sings | 96.7 | 44.2 |  |  |  |  | 
18 | O=c1c2c(Cl)cc(I)c(O)c2ncn1CC1CC1 |  |  | 97.9 | 82.3 |  |  |  |  | At 10 mg/kg: 10 days, none
19 | O=c1c2c(Cl)cc(Cl)c(O)c2ncn1-c1cc[nH]n1 | Up to 1477.4 ng/mL | 10 days, none | 126 | 115 |  |  |  |  | 
20 | CN(C)Cc1cnc2c(Cl)cc(Cl)c(O)c2n1.Cl | Up to 1000 ng/mL |  |  |  | 106 | 93 |  |  | 
21 | CN1CCCC1CCn1cnc2c(O)c(Cl)cc(Cl)c2c1=O (stereo not drawn) |  | 10 days, none |  |  | 105 | 94 | Up to 262 ng/mL in mice (single dose) |  | 
22 | Cc1cnc(-n2cnc3c(O)c(Cl)cc(Cl)c3c2=O)s1 |  | 10 days, mild signs |  |  | 94 | 70 |  |  | 
23 | O=c1c2c(Cl)cc(Cl)c(O)c2ncn1CCc1ccccn1 | Up to 59 ng/mL | 10 days, none |  |  | 100 | 92 |  |  | 

Row | SMILES | Mice plasma concentration [1] | Toxicity at 30 mg/kg [2] | viability at 1 uM [3] [%] | viability at 10 uM [3] [%] | viability at 4 days, 1 uM [4] [%] | viability at 4 days, 10 uM [4] [%] | Mice plasma concentration (single dose) [1] | Mice plasma concentration at 10 mg/kg [1] | Toxicity at 10 mg/kg [2]
24 | O=c1c2cccc(O)c2ncn1Cc1cccc(Cn2cnc3c(O)cccc3c2=O)n1 | Up to 128.4 ng/mL | 10 days, none | 117 | 106 |  |  |  |  | 
25 | CC(C)n1cnc2c(O)c(I)ccc2c1=O | Up to 277 ng/ml ng/mL | 10 days, 1/4 deaths |  |  |  |  |  |  | 
26 | Br.CCN(CC)Cc1nc2c(O)c(Cl)cc(Cl)c2c(=O)[nH]1 | Up to 2289 ng/mL | 10 days, none | 106 | 99.1 |  |  |  |  | 
27 | CN1CCN(n2cnc3c(O)c(Cl)cc(Cl)c3c2=O)CC1 | Up to 207 ng/mL | 10 days, none |  |  | 96 | 91 |  |  | 
28 | CCCCc1cnc2c(O)c(I)ccn2c1=O |  | 10 days, 2/4 deaths | 102 | 58.7 |  |  |  |  | 
29 | O=C1NC(=O)c2cc(-n3cnc4c(O)c(Cl)cc(Cl)c4c3=O)ccc21 |  | 10 days, none | 85.4 | 93.3 |  |  |  |  | 
30 | O=C(NCc1ccc(F)cc1)c1cnc2c(O)c(I)ccn2c1=O |  | 7 days, 4/4 deaths | 89.6 | 23.4 |  |  |  |  | 
31 | CCNC(=O)c1cnc2c(O)c(CC)ncc2c1.Cl |  |  | 84.4 | 92.1 |  |  | Up to 125.5 ng/mL (Single dose) |  | 
32 | O=c1c2c(Cl)cc(Cl)c(O)c2ncn1N1CCCCC1 |  | 10 days, none | 87.9 | 72.7 | 98 | 51 |  |  | 
33 | CCn1nccc1-n1cnc2c(O)c(Cl)cc(Cl)c2c1=O | Up to 3896 ng/mL | 10 days, none |  |  | 102 | 94 |  |  | 
34 | CN(C)Cc1ccc2c(Cl)cc(I)c(O)c2n1 |  | 1 day, 3/4 deaths | 97.9 | 24.4 |  |  |  |  | 
35 | Cc1ccc(-n2cnc3c(O)c(Cl)cc(Cl)c3c2=O)nc1 | Up to 39 ng/mL | 10 days, none |  |  | 96 | 83 |  |  | 
36 | O=c1c2c(Cl)cc(Cl)c(O)c2ncn1CCN1CCOCC1 |  | 10 days, none |  |  | 98 | 81 | Up to 10 ng/mL (single dose) |  | 
37 | CCn1cnc2c(O)c(I)ccc2c1=O |  | 10 days, none |  |  |  |  |  |  | 
38 | CCCn1cnc2c(O)c(I)cc(Cl)c2c1=O | Up to 4060 ng/mL |  | 120 | 100 |  |  |  |  | 
39 | COc1ccc(-n2cnc3c(O)c(Cl)cc(Cl)c3c2=O)nc1 |  | 10 days, none |  |  | 122 | 93 | Up to 80 ng/mL (single dose) |  | 
40 | O=c1c2ccc(I)c(O)c2ncn1-c1ccc(F)cc1F |  | 6 days, 2/4 deaths | 90.3 | 80.3 |  |  |  |  | 
41 | CCn1cnc2c(O)c(Cl)cc(Cl)c2c1=O |  |  | 104 | 95.9 | 93 | 58 |  |  | 
42 | Nc1cc(Cn2cnc3c(O)c(Cl)cc(Cl)c3c2=O)ccn1 |  | 10 days, 1 of 4 deaths | 95.1 | 93.9 |  |  |  |  | 
43 | CCCCc1cnc2c(O)cccn2c1=O |  | 10 days, none | 73.6 | 37 |  |  |  |  | 
44 | Nn1cnc2c(O)c(Cl)cc(Cl)c2c1=O |  |  | 113 | 104 | 103 | 101 |  |  | 
45 | O=c1c2c(Cl)cc(Cl)c(O)c2ncn1N1CCCC1 |  | 10 days, none |  |  | 101 | 88 |  |  | 
46 | Br.O=c1c2c(Cl)cc(Cl)c(O)c2ncn1Cc1cccc(Cn2cnc3c(Cl)c(Cl)cc(Cl)c3c2=O)n1 |  | 10 days, none | 94.9 | 26.8 | 89 | 67 |  |  | 
